The NIST ThermoML archive (doi:10.1016/j.jct.2012.02.034)
± gives the expanded uncertainty stated by the source.

Test: excess molar enthalpy (molar enthalpy of mixing); xn = mol fraction of the nth substance listed
Conditions: 313.15 K, Fluid (supercritical or subcritical phases), Flow calorimetry

CCOC(C)=O [ethyl acetate] + O=C=O
Conditions | excess molar enthalpy [kJ/mol]
9000 kPa, x2 = 0.087 | -0.453 ± 0.025
9000 kPa, x2 = 0.172 | -0.947 ± 0.03
9000 kPa, x2 = 0.256 | -1.36 ± 0.035
9000 kPa, x2 = 0.381 | -1.92 ± 0.045
9000 kPa, x2 = 0.462 | -2.2 ± 0.051
9000 kPa, x2 = 0.542 | -2.52 ± 0.057
9000 kPa, x2 = 0.66 | -2.86 ± 0.065
9000 kPa, x2 = 0.737 | -3.04 ± 0.068
9000 kPa, x2 = 0.814 | -2.98 ± 0.068
9000 kPa, x2 = 0.889 | -2.66 ± 0.065
9000 kPa, x2 = 0.926 | -2.26 ± 0.077
9000 kPa, x2 = 0.963 | -1.58 ± 0.082
12000 kPa, x2 = 0.123 | -0.419 ± 0.015
12000 kPa, x2 = 0.235 | -0.776 ± 0.021
12000 kPa, x2 = 0.338 | -1.01 ± 0.025
12000 kPa, x2 = 0.432 | -1.17 ± 0.028
12000 kPa, x2 = 0.519 | -1.29 ± 0.03
12000 kPa, x2 = 0.599 | -1.37 ± 0.03
12000 kPa, x2 = 0.673 | -1.4 ± 0.031
12000 kPa, x2 = 0.742 | -1.35 ± 0.033
12000 kPa, x2 = 0.806 | -1.26 ± 0.03
12000 kPa, x2 = 0.866 | -1.1 ± 0.03
12000 kPa, x2 = 0.949 | -0.669 ± 0.024
12000 kPa, x2 = 0.975 | -0.371 ± 0.066
15000 kPa, x2 = 0.132 | -0.362 ± 0.011
15000 kPa, x2 = 0.25 | -0.632 ± 0.016
15000 kPa, x2 = 0.356 | -0.871 ± 0.02
15000 kPa, x2 = 0.452 | -1.01 ± 0.023
15000 kPa, x2 = 0.539 | -1.15 ± 0.025
15000 kPa, x2 = 0.618 | -1.19 ± 0.026
15000 kPa, x2 = 0.724 | -1.15 ± 0.025
15000 kPa, x2 = 0.788 | -1.02 ± 0.023
15000 kPa, x2 = 0.818 | -0.948 ± 0.024
15000 kPa, x2 = 0.875 | -0.762 ± 0.023
15000 kPa, x2 = 0.927 | -0.518 ± 0.021
15000 kPa, x2 = 0.953 | -0.375 ± 0.014
18000 kPa, x2 = 0.071 | -0.258 ± 0.012
18000 kPa, x2 = 0.137 | -0.424 ± 0.013
18000 kPa, x2 = 0.259 | -0.693 ± 0.017
18000 kPa, x2 = 0.367 | -0.843 ± 0.019
18000 kPa, x2 = 0.463 | -0.938 ± 0.02
18000 kPa, x2 = 0.55 | -0.99 ± 0.021
18000 kPa, x2 = 0.629 | -1 ± 0.022
18000 kPa, x2 = 0.7 | -0.942 ± 0.021
18000 kPa, x2 = 0.825 | -0.754 ± 0.018
18000 kPa, x2 = 0.88 | -0.607 ± 0.018
18000 kPa, x2 = 0.931 | -0.414 ± 0.018
18000 kPa, x2 = 0.955 | -0.312 ± 0.018
